One experiment relates to IL-6. As to the kind of experiment: LPS-induced IL-6 release from hPBMCs (ELISA). Format: cell-based. The conditions noted are these: Homo sapiens. As to the method: Cytokine production by lipopolysaccharides (LPS) in hPBMCs (human peripheral blood mononuclear cells) was measured as in reference, Physiol. Res. 2003, 52, 593-598, the disclosure of which is incorporated by reference for the teaching of the assay. Blood was collected from healthy donors into Potassium EDTA vacutainer tubes (BID vacutainer). The PBMC were isolated using gradient centrifugation in Histopaque-1077 solution (Sigma). Isolated PBMC were suspended in RPMI 1640 (Rosewell Park Memorial Institute) culture medium (Sigma-Aldrich Fine Chemicals, USA) containing 10% fetal bovine serum (FBS) (JRH, USA), 100 U/mL penicillin (Sigma Chemical Co. St Louis, Mo., USA) and 100 μg/mL streptomycin (Sigma Chemical Co. St Louis, Mo.). The cell concentration was adjusted to 1×10^6 cells/mL. The viability as determined by trypan blue dye exclusion was uniform Ly≧98%. The cell suspension (100 μL) was added to the wells of a 96-well culture plate. Following cell plating, 79 μL of the culture medium and 1 μL of various concentrations of test compounds (compounds of formula 1) (final concentration 0.001, 0.003, 0.005, 0.01, 0.025, 0.03, 0.05, 0.1, 0.25, 0.3 and 1 μM) dissolved in DMSO (dimethyl sulfoxide, Sigma, Mo., USA) were added to the cells. The final concentration of DMSO was adjusted to 0.5%. The vehicle (0.5% DMSO) was used as control. […]
For orientation: An ELISA detects its analyte on a solid surface through an enzyme-linked reagent.

For the next experiment, the system named is ICAM-1. The experiment can be described thus: TNF-α induced cell surface expression of ICAM-1 on HUVECs. Format: cell-based. The note with it: Homo sapiens, HUVEC; TNF-α (1 ng/mL) stimulated HUVECs, 4 hours, n=2. Here is the method: (§1) The assay was designed as in reference, Transplantation, 1997, 63(5), 759-764, the disclosure of which is incorporated herein by reference for the teaching of the assay.
(§2) Human umbilical vein endothelial cells (HUVECs) were obtained from Cascade Biologics (Oregon-USA). Cells were cultured in M-200 medium (Cascade Biologics) supplemented with low serum growth supplements (LSGS) (Cascade Biologics), penicillin-G (100 U/mL), streptomycin (100 μg/mL) and amphotericin B (50 ng/mL) (GIBCO). […] After TNF-α stimulation (1 ng/mL) (R&D Systems (Minneapolis, Minn.)) for 4 hours at 37° C. in an atmosphere of 5% CO2, supernatants were harvested and assayed for the expression of ICAM-1 (intercellular cell adhesion molecules), whereas the expressions of VCAM-1 (vascular cell adhesion molecules) and E-selectin were evaluated after 6 hours of stimulation. […] To quantitatively measure the amount of cell surface expressions of ICAM-1, VCAM-1 and E-selectin, ELISA assay was performed using anti-ICAM-1 (clone BBIG-I1), anti-VCAM-1 (clone BBIG-V1), anti-E-selectin (clone BBIG-E4) antibodies, isotype control mouse IgG1 (clone 11711.11) and the secondary antibody (anti-mouse IgG-HRP antibody) which were procured from R&D Systems (Minneapolis, Minn., USA). […]

In the next experiment the test system is VCAM-1. The experiment can be described thus: TNF-α induced cell surface expression of VCAM-1 on HUVECs. Format: cell-based. The note with it: Homo sapiens, HUVEC; TNF-α (1 ng/mL) stimulated HUVECs, 6 hours, n=2. Here is the method:
as §1, §2

For the next experiment, the system named is E-selectin. The experiment can be described thus: TNF-α induced cell surface expression of E-selectin on HUVECs. The class given is cell-based. The note with it: Homo sapiens, HUVEC; TNF-α (1 ng/mL) stimulated HUVECs, 6 hours, n=2. As to the method: as §1, §2
A further experiment deals with TNF-α. The experiment can be described thus: LPS-induced TNF-α release in Balb/c mice. Format: in vivo. The conditions noted are these: Mus musculus, plasma 1.5 hours post LPS (1 mg/kg i.p.). Here is the method: The assay was designed as in reference, J. Med. Bio. Res., 1997, 30, 1199-1207, the disclosure of which is incorporated herein by reference for the teaching of the assay. […] All suspensions were freshly prepared in 0.5% CMC. One hour later, LPS (1 mg/kg) (Escherchia coli, serotype 0127:B8, Sigma Chemical Co., St. Louis, Mo.) dissolved in sterile pyrogen-free saline was administered intra-peritoneally to the control group, standard treatment group (Rolipram, 30 mg/kg, p.o.) and test groups (compound of example 3), except the negative control group, which received normal saline. Blood samples were collected from anesthetized mice, with heparin as an anti-coagulant (25 IU per sample) 1.5 hours post LPS challenge. […] Percent inhibition of TNF-α release was calculated by comparing the TNF-α levels of the treatment groups with those of the control group.

For 1 compound, IC50 and inhibition results are on record in patent US8906953B2, “Pyrrolidine substitute flavones for the treatment of inflammatory disorders” (Piramal Enterprises Limited, priority 2010, dated 2014).

The IC50 is the concentration that inhibits the measured activity by half. Read a high IC50 as weaker potency in that assay. The term inhibition denotes the percentage by which the read-out fell short of the control. Low readings indicate a response near the control, high ones a response far below the control. As to `CN1CC[C@@H](c2c(O)cc(O)c3c(=O)cc(-c4ccc(C(F)(F)F)cc4Cl)oc23)[C@@H]1CO.Cl` [Compound of example 3, (+)-trans-2-(2-Chloro-4-trifluoromethyl-phenyl)-5,7-dihydroxy-8-(2-hydroxymethyl-1-methyl-pyrrolidin-3-yl)-chromen-4-one hydrochloride], the IC50 in the experiment on IL-6 is 100 nM; in the experiment with ICAM-1 it was 670 nM; in the experiment on VCAM-1, 280 nM; with E-selectin it was 650 nM. Moreover, the inhibition at 12.5 mg/kg in the experiment on TNF-α (12.5 mg/kg oral) was 53.2 ± 12.5%. Testing at 25 mg/kg in the experiment on TNF-α (25 mg/kg oral) gave an inhibition of 66.8 ± 11.5%. Besides, at 50 mg/kg the inhibition in the experiment on TNF-α (50 mg/kg oral) was 82 ± 4.88%. Besides, the inhibition at 75 mg/kg in the experiment with TNF-α (75 mg/kg oral) amounted to 77.3 ± 8.61%. In the experiment on TNF-α (100 mg/kg oral), this compound came in with an inhibition at 100 mg/kg of 92.6 ± 3.5%.
